“And” between values parts separate entries of the source, which are not always exact repeats. Equal values may be shown once. Read-outs that look alike come from different tables or passages of the source.
Assays:
SN12C (Renal Cancer) = assay: NCI60 screen (SRB); assay type: cell-based, human; details: 48 h; for growth percent: one dose 10 µM
CCRF-CEM (Leukemia) = assay: NCI60 screen (SRB); assay type: cell-based, human; details: 48 h; for growth percent: one dose 10 µM
SK-MEL-5 (Melanoma) = assay: NCI60 screen (SRB); assay type: cell-based, human; details: 48 h; for growth percent: one dose 10 µM
[1] = test system: NCI-H226 (Non-Small Cell Lung Cancer); assay: NCI60 screen (SRB); assay type: cell-based, human; details: 48 h; for growth percent: one dose 10 µM
[2] = test system: MCF-7 breast cancer cells; assay: alamarBlue cell viability assay; assay type: cell-based; details: Homo sapiens, MCF7, MCF-7
Description: Figure 5 Preliminary cell viability data for Series 1: (A) compounds 22a–22g and chalcone 20b and Series 2: (B) compounds 23a–e and chalcone 20b in MCF-7 breast cancer cells. Cell proliferation of MCF-7 cells was determined with an alamarBlue assay (seeding density 2.5 × 10^4 cells/mL per well for 96-well plates). Compound concentrations of either 1 or 0.1 μM for 72 h were used to treat the cells (in triplicate) with control wells containing vehicle ethanol (1% v/v). The mean value ± SEM for three independent experiments is shown. The positive controls used are CA-4 and phenstatin (1.0 μM and 0.1 μM). Statistical analysis was performed using One-way ANOVA with the Sidak multiple comparison test (***, p < 0.001).
HL-60 cells were suspension cells and the seeding density for the viability assay was 25,000 cells/mL. MCF-7 cells (adherent) were cultured in Minimum Essential Media (MEM) with GlutaMAX™-I, supplemented with 1% (v/v) non-essential amino acids, 10% (v/v) fetal bovine serum (FBS), purchased from BD Biosciences (Edmund Halley Road, Oxford, UK), and 1% (v/v) penicillin/streptomycin 5000 U/mL. The MCF-7 cells used in the screening of the compounds during these experiments were mycoplasma-free. The seeding density of MCF-7 in the viability assay was 25,000 cells/mL and 50,000 cells/mL in the FACS assay. Normal breast cells (MCF-10A) (adherent) were cultured in Dulbecco’s Modified Eagle Medium: Nutrient Mixture F-12 (DMEM/F12; Gibco) supplemented with 5% horse serum (Invitrogen, Waltham, MA, USA), 20 ng/mL epidermal growth factor (Merck Millipore, Burlington, MA, USA), 0.5 μg/mL hydrocortisone (Sigma, Kanagawa, Japan), 100 ng/mL cholera toxin (Sigma), 10 μg/mL insulin (Sigma), and penicillin/streptomycin 5000 U/mL (1%) (Gibco, Waltham, MA, USA). […] MDA-MB-231 cells were cultured in Dulbecco’s Modified Eagle Medium, which was supplemented with 10% (v/v) fetal bovine serum (FBS) and 1% (v/v) penicillin/streptomycin 5000 U/mL. When not in use, all cells were kept in liquid nitrogen and frozen in a freezing media made of 90% FBS and 10% DMSO. All cells were grown in an atmosphere of 5% CO2/95% air in T75 culture flasks. The media was changed every 2–3 days and media was always prewarmed to 37 °C. All were sub-cultured every 3–4 days by trypsinization using TrypLE™ Express enzyme when confluence was reached to allow growth, prevent excessive cell death, and minimize the risk of infections derived by over-confluence. For the cell viability assay, the number of cells per milliliter was 25,000 cells/mL while the FACS assay utilized 50,000 cells/mL. Cells were maintained at 37 °C in 5% CO2 in a humidified incubator.
The biochemical assays were performed in triplicate and on at least three independent occasions to facilitate the determination of mean values. For the viability assay, cells were grown until 80% confluent. Adherent cells such as MCF-7, MDA-MB-231, and MCF-10A were trypsinized to detach them from the flask, counted as previously described, and seeded in 96 well plates with a seeding density of 25,000 cells /mL (200 µL of suspension in each well so that the final number of cells per well was 5000) and 1 × 10^4 cells/well seeding density for suspension HL-60 cells. Adherent cells were incubated for 24 h after being seeded in the 96 well plate and treated on the following day, while suspension cells were treated on the same day of the seeding. In both cases, the incubation time after the treatment with the drug was 72 h. After 68 h incubation, the AlamarBlue was added (20 µL in each well) and the incubation time was completed. After 72 h, the change in color was measured by spectrofluorimetry at an excitation wavelength of 544 nm and emission wavelength of 590 nm. AlamarBlue is a cell viability indicator containing a compound called resazurin. AlamarBlue is water soluble, stable in culture media, non-toxic, and is permeable through the cell membrane. […]

RPMI-8226 (Leukemia) = assay: NCI60 screen (SRB); assay type: cell-based, human; details: 48 h; for growth percent: one dose 10 µM
MCF7 (Breast Cancer) = assay: NCI60 screen (SRB); assay type: cell-based, human; details: 48 h; for growth percent: one dose 10 µM
SW-620 (Colon Cancer) = assay: NCI60 screen (SRB); assay type: cell-based, human; details: for GI50: five-dose; for growth percent: one dose 10 µM
[3] = test system: MDA-MB-231/ATCC (Breast Cancer); assay: NCI60 screen (SRB); assay type: cell-based, human; details: 48 h
MDA-MB-435 (Melanoma) = assay: NCI60 screen (SRB); assay type: cell-based, human; details: 48 h; for growth percent: one dose 10 µM
DU-145 (Prostate Cancer) = assay: NCI60 screen (SRB); assay type: cell-based, human; details: 48 h; for growth percent: one dose 10 µM
breast cancer panel = assay: NCI60 screen (SRB), panel mean; assay type: cell-based, human; details: BC panel; one dose 10 µM; 48 h
[4] = test system: NCI-H23 (Non-Small Cell Lung Cancer); assay: NCI60 screen (SRB); assay type: cell-based, human; details: 48 h; for growth percent: one dose 10 µM
UACC-62 (Melanoma) = assay: NCI60 screen (SRB); assay type: cell-based, human; details: 48 h; for growth percent: one dose 10 µM
UACC-257 (Melanoma) = assay: NCI60 screen (SRB); assay type: cell-based, human; details: 48 h; for growth percent: one dose 10 µM
K-562 (Leukemia) = assay: NCI60 screen (SRB); assay type: cell-based, human; details: 48 h; for growth percent: one dose 10 µM
TK-10 (Renal Cancer) = assay: NCI60 screen (SRB); assay type: cell-based, human; details: 48 h; for growth percent: one dose 10 µM
SK-MEL-2 (Melanoma) = assay: NCI60 screen (SRB); assay type: cell-based, human; details: 48 h; for growth percent: one dose 10 µM
HS 578T (Breast Cancer) = assay: NCI60 screen (SRB); assay type: cell-based, human; details: 48 h; for growth percent: HS 578T, one dose 10 µM
[5] = test system: A549/ATCC (Non-Small Cell Lung Cancer); assay: NCI60 screen (SRB); assay type: cell-based, human; details: 48 h; for growth percent: one dose 10 µM

Compound: COc1ccc(/C=C/C(c2cc(OC)c(OC)c(OC)c2)n2cncn2)cc1O (stereo not drawn) [Compound 22b, (E)-5-(3-(1H-1,2,4-Triazol-1-yl)-3-(3,4,5-trimethoxyphenyl)prop-1-en-1-yl)-2-methoxyphenol]
- GI50 (SN12C (Renal Cancer); Homo sapiens, five-dose): 7190 nM
- growth percent (SN12C (Renal Cancer)): 49.61%
- GI50 (CCRF-CEM (Leukemia); Homo sapiens, five-dose): 32 nM
- growth percent (CCRF-CEM (Leukemia)): 6.31%
- GI50 (SK-MEL-5 (Melanoma); Homo sapiens, five-dose): 45.8 nM
- growth percent (SK-MEL-5 (Melanoma)): 23.87%
- GI50 ([1]; Homo sapiens, five-dose): 5930 nM
- growth percent [1]: 62.21%
- IC50 [2]: 390 nM
- viability at 0.5 µM ([2]; 0.5 μM, 72 h, Figure 9C): 70%
- viability at 1 µM ([2]; 72 h, Figure 9C, read-out: cell viability): 30%
- viability at 1 µM ([2]; 72 h, read-out: viable cells): 40%
- viability at 10 µM ([2]; 10 μM, 72 h, Figure 9C): 20%
- IC50 ([2]; 72 h): 385 ± 120 nM
- GI50 (RPMI-8226 (Leukemia); Homo sapiens, five-dose): 37 nM
- growth percent (RPMI-8226 (Leukemia)): 19.89%
- GI50 (MCF7 (Breast Cancer); Homo sapiens, five-dose): 33 nM
- growth percent (MCF7 (Breast Cancer)): 21.2% and 21.22%
- GI50 (SW-620 (Colon Cancer); Homo sapiens, SW-620, 48 h): 39 nM
- GI50 (SW-620 (Colon Cancer); 48 h): 39.4 nM
- growth percent (SW-620 (Colon Cancer); 48 h): 27.62%
- GI50 ([3]; Homo sapiens, five-dose): 3020 nM
- GI50 (MDA-MB-435 (Melanoma); Homo sapiens, five-dose): 18.3 nM
- growth percent (MDA-MB-435 (Melanoma)): −32.99%
- IC50 (DU-145 (Prostate Cancer); Homo sapiens, five-dose, read-out: IC50 (cell marked * in GI50 column) (converted)): 6610 nM
- growth percent (DU-145 (Prostate Cancer)): 21.00%
- mean growth percentage (breast cancer panel): 29.1%
- GI50 ([4]; Homo sapiens, five-dose): 3470 nM
- growth percent [4]: 41.50%
- GI50 (UACC-62 (Melanoma); Homo sapiens, five-dose): 47.6 nM
- growth percent (UACC-62 (Melanoma)): 37.50%
- GI50 (UACC-257 (Melanoma); Homo sapiens, five-dose): > 100000 nM
- growth percent (UACC-257 (Melanoma)): 55.61%
- GI50 (K-562 (Leukemia); Homo sapiens, K562, five-dose): 32 nM
- growth percent (K-562 (Leukemia)): 8.05%
- GI50 (TK-10 (Renal Cancer); Homo sapiens, five-dose): 21200 nM
- growth percent (TK-10 (Renal Cancer)): 41.24%
- GI50 (SK-MEL-2 (Melanoma); Homo sapiens, five-dose): 43.8 nM
- growth percent (SK-MEL-2 (Melanoma)): 18.23%
- growth percent (HS 578T (Breast Cancer)): 28.47%
- IC50 (HS 578T (Breast Cancer); Homo sapiens, Hs-578T, read-out: IC50 (cell marked * in GI50 column)): > 100000 nM
- GI50 ([5]; Homo sapiens, five-dose): 4560 nM
- growth percent [5]: 40.13%

Compound: COc1cc(/C=C/C(/C=C/c2cc(OC)c(OC)c(OC)c2)n2ccnc2)cc(OC)c1OC [Compound 30, 1-((1E,4E)-1,5-bis(3,4,5-trimethoxyphenyl)penta-1,4-dien-3-yl)-1H-imidazole]
- growth percent (SN12C (Renal Cancer)): 84.52%
- growth percent (CCRF-CEM (Leukemia)): 65.10%
- growth percent (SK-MEL-5 (Melanoma)): 62.09%
- growth percent [1]: 84.81%
- viability at 1 µM ([2]; 72 h, read-out: viable cells): 77%
- growth percent (RPMI-8226 (Leukemia)): 60.48%
- growth percent (MCF7 (Breast Cancer)): 57.42%
- growth percent (SW-620 (Colon Cancer); 48 h): 88.00%
- growth percent ([3]; one dose 10 µM): 76.21%
- growth percent (MDA-MB-435 (Melanoma)): 45.63%
- growth percent (DU-145 (Prostate Cancer)): 100.17%
- mean growth percentage (breast cancer panel): 71.5%
- growth percent [4]: 81.16%
- growth percent (UACC-62 (Melanoma)): 68.23%
- growth percent (UACC-257 (Melanoma)): 75.61%
- growth percent (K-562 (Leukemia)): 61.41%
- growth percent (TK-10 (Renal Cancer)): 115.50%
- growth percent (SK-MEL-2 (Melanoma)): 81.02%
- growth percent (HS 578T (Breast Cancer)): 77.21%
- growth percent [5]: 78.93%
